Source: ChEMBL document CHEMBL1135041, “Synthesis and first biological evaluation of 1-aza-9-oxafluorenes as novel lead structures for the development of small-sized cytostatics” (2002)

Assays:
Format in all cases: functional
Conditions in all cases: Homo sapiens
IGROV-1 = assay: Growth inhibition against IGROVI (ovarian cancer) cell line using SRB protein cytotoxicity assay
KM12 = assay: Growth inhibition against KM12 (colon cancer) cancer cell line using SRB protein cytotoxicity assay
NCI/ADR-RES = assay: Growth inhibition against NCI/ADR-RES (breast cancer) cell line using SRB protein cytotoxicity assay
SF-268 = assay: Growth inhibition against SF-268 cancer cell line using SRB protein cytotoxicity assay
SNB-75 = assay: Growth inhibition against SNB-75 (CNS cancer) cell line using SRB protein cytotoxicity assay

| Structure (SMILES) | GI50 (IGROV-1) [µM] | GI50 (KM12) [µM] | GI50 (NCI/ADR-RES) [µM] | GI50 (SF-268) [µM] | GI50 (SNB-75) [µM] |
| --- | --- | --- | --- | --- | --- |
| CCOC(=O)c1cnc2oc3ccc(O)cc3c2c1-c1ccccc1 | 2.5 | 5.1 | 4.7 | 29.7 | 16.5 |
| CC(=O)c1cnc2oc3ccc(O)cc3c2c1-c1ccccc1 | 5 | 40.8 | 19.6 | 27.7 | 2.6 |
| CCOC(=O)c1cnc2oc3ccc(O)cc3c2c1C | 86 | 70.3 | 41 | 69.9 | 26 |
| CC(=O)c1cnc2oc3ccc(O)cc3c2c1C | – | – | – | > 100 | – |
